Key:
[1] = target: T1, Tie2 receptor tyrosine kinase (Homo sapiens, UniProt Q02763); assay: In vitro receptor tyrosine kinase inhibition assay, Test (a) (ELISA); type: biochemical; details: recombinant human Tie2 kinase domain lysate, ATP 5 micromolar (or Km)
T1 construct: consist of only the intracellular portion C-terminal portion of the respective receptor, within which is found the kinase domain; made in house; host or cells: baculovirus/Sf21 insect cells (or alternative equivalent), used as cleared lysate
T1 sequence (Q02763 770-1124 limits assumed): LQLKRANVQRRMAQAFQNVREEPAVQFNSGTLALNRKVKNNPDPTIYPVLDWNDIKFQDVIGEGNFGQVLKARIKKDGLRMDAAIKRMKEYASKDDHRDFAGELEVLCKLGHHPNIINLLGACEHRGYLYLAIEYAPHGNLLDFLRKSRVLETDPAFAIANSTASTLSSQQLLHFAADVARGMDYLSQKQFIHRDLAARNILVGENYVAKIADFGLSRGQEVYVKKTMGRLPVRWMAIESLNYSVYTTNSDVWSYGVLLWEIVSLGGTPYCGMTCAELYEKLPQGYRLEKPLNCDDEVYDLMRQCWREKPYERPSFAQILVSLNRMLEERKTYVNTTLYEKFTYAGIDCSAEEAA
Experimental: a. In vitro Receptor Tyrosine Kinase Inhibition Assay
To test for inhibition of Tie2 receptor tyrosine kinase, compounds are evaluated in a non-cell based protein kinase assay by their ability to inhibit the protein kinase enzyme phosphorylation of a tyrosine containing polypeptide substrate in an ELISA based microtitre plate assay. In this particular case, the assay was to determine the IC50, for three different recombinant human tyrosine kinases Tie2, KDR and Flt.
To facilitate production of the tyrosine kinases, recombinant receptor genes were produced using standard molecular biology cloning and mutagenesis techniques. These recombinant proteins fragments encoded within these genes consist of only the intracellular portion C-terminal portion of the respective receptor, within which is found the kinase domain. The recombinant genes encoding the kinase domain containing fragments were cloned and expressed in standard baculovirus/Sf21 system (or alternative equivalent).
Lysates were prepared from the host insect cells following protein expression by treatment with ice-cold lysis buffer (20 mM N-2-hydroxyethylpiperizine-N′-2-ethanesulphonic acid (HEPES) pH7.5, 150 mM NaCl, 10% glycerol, 1% Triton X-100, 1.5 mM MgCl2, 1 mM ethylene glycol-bis (β-aminoethyl ether) N′,N′,N′,N′-tetraacetic acid (EGTA), plus protease inhibitors and then cleared by centrifugation. Tie2, KDR and Flt1 lysates were stored in aliquots at −80° C.
Constitutive kinase activity of these recombinant proteins was determined by their ability to phosphorylate a synthetic peptide (made up of a random co-polymer of Glutamic Acid, Alanine and Tyrosine in the ratio of 6:3:1). Specifically, Nunc Maxisorb™ 96-well immunoplates were coated with 100 microlitres of synthetic peptide Sigma P3899 (1 mg/ml stock solution in PBS diluted 1:500 in PBS prior to plate coating) and incubated at 4° C. overnight. Plates were washed in 50 mM HEPES pH 7.4 at room temperature to remove any excess unbound synthetic peptide.
The immobilised phospho-peptide product of the reaction was detected by immunological methods. Firstly, plates were incubated for 4 hours at room temperature with murine monoclonal anti-phosphotyrosin-HRP (Horseradish Peroxidase) conjugated antibodies (4G10 from Upstate Biotechnology UBI 16-105). Following extensive washing with PBS-T, HRP activity in each well of the plate was measured colorimetrically using 22′-Azino-di-[3-ethylbenzthiazoline sulfonate (6)]diammonium salt crystals ABTS (Sigma P4922—prepared as per manufactures instructions) as a substrate incubated for 30-45 minutes to allow colour development, before 100 ul of 1M H2SO4 was added to stop the reaction.
Quantification of colour development and thus enzyme activity was achieved by the measurement of absorbance at 405 nm on a Molecular Devices ThermoMax microplate reader. Kinase inhibition for a given compound was expressed as an IC50 value. This was determined by calculation of the concentration of compound that was required to give 50% inhibition of phosphorylation in this assay. The range of phosphorylation was calculated from the positive (vehicle plus ATP) and negative (vehicle minus ATP) control values.

Tie2 receptor = target: T2, Tie2 receptor (Homo sapiens, UniProt Q02763); assay: Cellular Tie2 autophosphorylation assay, Test (b); type: cell-based; details: Ang1 ligand stimulated whole cells (e.g. EA.hy926/B3), immunoprecipitation/western blot; read-out: IC50 (μM) Test (b): Inhibition of autophosphorylation of Tie2 receptor tyrosine kinase
T2 construct: one can use natural cell lines or primary cells which are known to express the receptor of choice; endogenous in cells; host or cells: EA.hy926/B3 cells (HUVEC named as an alternative)
T2 sequence (Q02763 23-1124): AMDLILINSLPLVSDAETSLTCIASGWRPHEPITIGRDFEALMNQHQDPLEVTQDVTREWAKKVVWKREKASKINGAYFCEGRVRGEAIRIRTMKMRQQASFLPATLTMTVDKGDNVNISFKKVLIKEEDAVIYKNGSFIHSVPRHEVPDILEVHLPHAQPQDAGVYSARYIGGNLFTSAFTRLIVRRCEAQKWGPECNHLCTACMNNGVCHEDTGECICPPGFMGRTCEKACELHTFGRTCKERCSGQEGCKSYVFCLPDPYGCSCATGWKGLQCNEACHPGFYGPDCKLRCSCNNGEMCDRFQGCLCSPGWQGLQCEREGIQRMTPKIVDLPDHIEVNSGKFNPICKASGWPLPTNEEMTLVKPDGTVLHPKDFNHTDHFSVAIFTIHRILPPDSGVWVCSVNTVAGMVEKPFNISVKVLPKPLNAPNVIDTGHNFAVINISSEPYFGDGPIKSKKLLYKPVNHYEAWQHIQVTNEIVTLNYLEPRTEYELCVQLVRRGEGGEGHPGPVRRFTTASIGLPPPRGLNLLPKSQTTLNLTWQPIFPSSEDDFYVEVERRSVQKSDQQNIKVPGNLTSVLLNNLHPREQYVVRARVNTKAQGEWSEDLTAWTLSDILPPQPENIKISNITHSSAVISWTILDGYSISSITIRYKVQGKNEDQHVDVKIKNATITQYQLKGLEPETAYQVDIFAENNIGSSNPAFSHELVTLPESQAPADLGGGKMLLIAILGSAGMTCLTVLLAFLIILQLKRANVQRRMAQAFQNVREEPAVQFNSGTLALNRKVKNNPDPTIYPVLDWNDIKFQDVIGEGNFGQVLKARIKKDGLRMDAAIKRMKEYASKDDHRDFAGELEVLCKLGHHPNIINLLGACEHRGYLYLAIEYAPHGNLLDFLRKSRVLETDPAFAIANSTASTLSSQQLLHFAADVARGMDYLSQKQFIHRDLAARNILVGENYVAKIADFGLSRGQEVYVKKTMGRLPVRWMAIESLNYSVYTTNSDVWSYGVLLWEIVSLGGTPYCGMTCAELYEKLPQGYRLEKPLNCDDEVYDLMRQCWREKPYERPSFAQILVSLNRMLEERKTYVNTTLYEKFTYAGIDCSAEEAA
Excerpt: b. Cellular Tie2 Autophosphorylation Assay
This assay is based on measuring the ability of compounds to inhibit autophosphorylation of the Tie2 receptor which normally leads to the production of “activated” receptor that in turn initiates the particular signal transduction pathways associated with the receptor function.
Autophosphorylation can be achieved by a number of means. It is known that expression of recombinant kinase domains in baculoviral systems can lead to the production of phosphorylated and activated receptor. It is also reported that over expression of receptors in recombinant cell lines can itself lead to receptor autophosphorylation in the absence of the ligand (Heldin C-H. 1995 Cell: 80, 213-223; Blume-J. P, Hunter T. 2001 Nature: 411, 355-65). Furthermore, there are numerous literature examples in which chimaeric receptors have been constructed. In these cases the natural, external cell surface domain of the receptor has been replaced with that of a domain which is known to be readily dimerised via the addition of the appropriate ligand (e.g. TrkA-Tie2/NGF ligand (Marron, M. B., et al., 2000 Journal of Biological Chemistry: 275:39741-39746) or C-fins-Tie-1/CSF-1 ligand (Kontos, C. D., et al., 2002 Molecular and Cellular Biology: 22, 1704-1713). Thus when the chimaeric receptor expressed in a host cell line and the respective ligand is added, this induces autophosphorylation of the chimeric receptor's kinase domain. This approach has the advantage of often allowing a known (and often easily obtained) ligand to be used instead of having to identify and isolate the natural ligand for each receptor of interest.
Naturally if the ligand is available one can use natural cell lines or primary cells which are known to express the receptor of choice and simply stimulate with ligand to achieve ligand induced phosphorylation. The ability of compounds to inhibit autophosphorylation of the Tie2 receptor, which is expressed for example in EA.hy926/B3 cells (supplied by J. McLean/B. Tuchi, Univ. of N. Carolina at Chapel Hill, CB-4100, 300 Bynum Hall, Chapel Hill, N.C. 27599-41000, USA) or primary HUVEC (human umbilical vein endothelial cells—available from various commercial sources), can measured by this assay.
Natural Ang1 ligand can be isolated using standard purification technology from either tumour cell supernatants or alternatively the Ang1 gene can be cloned and expressed recombinantly using stand molecular biology techniques and expression systems. In this case one can either attempt to produce the ligand either in its native state or as recombinant protein which for example may have been genetically engineered to contain additional of purification tags (eg. polyhistidine peptides, antibody Fc domains) to facilitate the process.
Using the ligand stimulation of either EA.hy926/B3 or HUVEC cellular Tie2 receptor as the example, a Ang1 ligand stimulated cellular receptor phosphorylation assay can be constructed which can be used to analyse to determine the potential of compounds to inhibit this process. For example EA.hy926/B3 cells were grown in the appropriate tissue culture media plus 10% foetal calf serum (FCS) for two days in 6 well plates starting with an initial seeding density of 5×10^5 cells/well. On the third day the cells were serum starved for a total of 2 hours by replacing the previous media with media containing only 1% FCS. After 1 hour 40 minutes of serum starvation the media was removed and replace with 1 ml of the test compound dilutions (compound dilutions made in serum starvation media yet keeping the DMSO concentration below 0.8%). After 1.5 hours of serum starvation orthovanidate was added to a final concentration of 0.1 mM for the final 10 minutes of serum starvation. […]

| Structure (SMILES) | IC50 [1] [µM] | IC50 (Tie2 receptor) [µM] |
| --- | --- | --- |
| Cc1ccc(CNC(=O)Nc2cccc(C#Cc3cnc(NCCCN4CCCCC4)nc3)c2)o1 [Example 14, N-[(5-methyl-2-furyl)methyl]-N′-[3-({2-[(3-piperidin-1-ylpropyl)amino]pyrimidin-5-yl}ethynyl)phenyl]urea] | 20 | 0.38 |
| Cc1ccc(CNC(=O)Nc2cccc(C#Cc3cnc(N)nc3)c2)o1 [Example 6, N-{3-[(2-aminopyrimidin-5-yl)ethynyl]phenyl}-N′-[(5-methyl-2-furyl)methyl]urea] | 20 | 1.7 |
| Nc1ncc(C#Cc2cccc(NC(=O)NC(CCO)c3ccccc3)c2)cn1 (stereo not drawn) [Example 12, N-{3-[(2-aminopyrimidin-5-yl)ethynyl]phenyl}-N′-(3-hydroxy-1-phenylpropyl)urea] | 25 | 1.3 |

The remaining lines, values ahead:

| IC50 [1] [µM] | IC50 (Tie2 receptor) [µM] | Structure (SMILES) |
| --- | --- | --- |
| 9 | 3.6 | Cc1conc1CNC(=O)Nc1cccc(C#Cc2c(N)ncnc2N)c1 [Example 50, N-{3-[(4,6-diaminopyrimidin-5-yl)ethynyl]phenyl}-N′-[(4-methylisoxazol-3-yl)methyl]urea] |
| 1.5 | 1.9 | Nc1ncnc(N)c1C#Cc1cccc(NC(=O)NCC2CCCO2)c1 (stereo not drawn) [Example 47, N-{3-[(4,6-diaminopyrimidin-5-yl)ethynyl]phenyl}-N′-(tetrahydrofuran-2-ylmethyl)urea] |
| 3.3 | 0.2 | Nc1ncnc(N)c1C#Cc1cccc(NC(=O)NCc2cccnc2)c1 [Example 45, N-{3-[(4,6-diaminopyrimidin-5-yl)ethynyl]phenyl}-N′-(pyridin-3-ylmethyl)urea] |

Reference: patent US20100048543A1, “PYRIMIDINE COMPOUNDS HAVING TIES (TEK) INHIBITORY ACTIVITY” (ASTRAZENECA AB, priority 2005, published 2010)
